Active and inactive are the calls of the source. The calls are words filed in the database; no cut-off is given here.
biological target: T1, Glycogen phosphorylase, muscle form (Oryctolagus cuniculus) (UniProt P00489); assay: Inhibition of rabbit muscle glycogen phosphorylase b at 625 uM
T1 sequence (whole entry): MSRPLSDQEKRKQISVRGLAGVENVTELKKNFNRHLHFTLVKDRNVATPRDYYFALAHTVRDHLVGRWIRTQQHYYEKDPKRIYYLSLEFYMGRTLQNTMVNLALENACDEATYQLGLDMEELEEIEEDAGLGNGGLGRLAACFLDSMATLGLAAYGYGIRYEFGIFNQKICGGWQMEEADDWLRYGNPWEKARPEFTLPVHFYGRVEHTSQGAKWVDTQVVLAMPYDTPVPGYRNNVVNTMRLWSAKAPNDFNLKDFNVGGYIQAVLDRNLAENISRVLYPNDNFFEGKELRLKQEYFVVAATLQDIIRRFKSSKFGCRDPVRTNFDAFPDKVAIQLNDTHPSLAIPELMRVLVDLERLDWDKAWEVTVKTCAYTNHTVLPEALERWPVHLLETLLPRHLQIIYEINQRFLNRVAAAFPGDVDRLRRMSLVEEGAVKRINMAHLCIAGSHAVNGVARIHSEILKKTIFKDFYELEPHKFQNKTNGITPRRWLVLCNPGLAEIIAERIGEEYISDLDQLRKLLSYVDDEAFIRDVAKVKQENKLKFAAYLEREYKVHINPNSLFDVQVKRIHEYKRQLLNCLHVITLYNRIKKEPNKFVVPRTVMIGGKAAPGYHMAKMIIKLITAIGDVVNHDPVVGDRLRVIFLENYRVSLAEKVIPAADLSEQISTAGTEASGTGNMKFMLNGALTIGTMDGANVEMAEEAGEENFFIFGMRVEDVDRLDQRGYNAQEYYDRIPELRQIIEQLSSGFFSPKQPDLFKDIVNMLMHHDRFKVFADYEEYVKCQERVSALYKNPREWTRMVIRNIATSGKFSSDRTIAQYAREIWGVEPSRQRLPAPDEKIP

| inhibition | SMILES |
| --- | --- |
| inactive | OC[C@H]1O[C@@H](c2nnc(-c3ccc(O)cc3)o2)[C@H](O)[C@@H](O)[C@@H]1O |
| inactive | Nc1ccc(-c2nnc([C@@H]3O[C@H](CO)[C@@H](O)[C@H](O)[C@H]3O)o2)cc1 |
| inactive | O=[N+]([O-])c1ccc(-c2nnc([C@@H]3O[C@H](CO)[C@@H](O)[C@H](O)[C@H]3O)o2)cc1 |
| 10% | OC[C@H]1O[C@@H](c2noc(-c3ccccc3)n2)[C@H](O)[C@@H](O)[C@@H]1O |
| 10% | OC[C@H]1O[C@@H](c2nnc(-c3ccccc3)o2)[C@H](O)[C@@H](O)[C@@H]1O |
| inactive | Cc1ccc(-c2nnc([C@@H]3O[C@H](CO)[C@@H](O)[C@H](O)[C@H]3O)o2)cc1 |
| inactive | OC[C@H]1O[C@@H](c2noc(-c3cccc4ccccc34)n2)[C@H](O)[C@@H](O)[C@@H]1O |
| 10% | OC[C@H]1O[C@@H](c2nnc(-c3ccc4ccccc4c3)o2)[C@H](O)[C@@H](O)[C@@H]1O |
| inactive | O=[N+]([O-])c1ccc(-c2nc([C@@H]3O[C@H](CO)[C@@H](O)[C@H](O)[C@H]3O)no2)cc1 |
| inactive | OC[C@H]1O[C@@H](c2nc(-c3ccc(OCc4ccccc4)cc3)no2)[C@H](O)[C@@H](O)[C@@H]1O |
| inactive | Cc1nc([C@@H]2O[C@H](CO)[C@@H](O)[C@H](O)[C@H]2O)no1 |
| 10% | OC[C@H]1O[C@@H](c2nnc(-c3cccc4ccccc34)o2)[C@H](O)[C@@H](O)[C@@H]1O |
| 20% | Nc1ccc(-c2noc([C@@H]3O[C@H](CO)[C@@H](O)[C@H](O)[C@H]3O)n2)cc1 |
| inactive | COc1ccc(-c2nnc([C@@H]3O[C@H](CO)[C@@H](O)[C@H](O)[C@H]3O)o2)cc1 |

biological target: T2, Glycogen phosphorylase, muscle form (Oryctolagus cuniculus, UniProt P00489)
T2 sequence (P00489 whole entry): T1 sequence (whole entry)

| IC50 | SMILES | Ki |
| --- | --- | --- |
| 550 µM | COc1ccc(-c2nc([C@@H]3O[C@H](CO)[C@@H](O)[C@H](O)[C@H]3O)no2)cc1 |  |
|  | Cc1ccc(-c2noc([C@@H]3O[C@H](CO)[C@@H](O)[C@H](O)[C@H]3O)n2)cc1 | 8.8 µM |
|  | O=C(NC(=O)c1cccc2ccccc12)N[C@@H]1O[C@H](CO)[C@@H](O)[C@H](O)[C@H]1O | 15 µM |
| 650 µM | O=[N+]([O-])c1ccc(-c2noc([C@@H]3O[C@H](CO)[C@@H](O)[C@H](O)[C@H]3O)n2)cc1 |  |
|  | Cc1ccc(C(=O)NC(=O)N[C@@H]2O[C@H](CO)[C@@H](O)[C@H](O)[C@H]2O)cc1 | 2.3 µM |
|  | OC[C@H]1O[C@@H](c2noc(-c3ccc4ccccc4c3)n2)[C@H](O)[C@@H](O)[C@@H]1O | 38 µM |
|  | OC[C@H]1O[C@@H](c2nc3ccccc3s2)[C@H](O)[C@@H](O)[C@@H]1O | 76 µM |
|  | COc1ccc(-c2noc([C@@H]3O[C@H](CO)[C@@H](O)[C@H](O)[C@H]3O)n2)cc1 | 20.4 µM |
|  | OC[C@H]1O[C@@H](c2nc(-c3ccc(O)cc3)no2)[C@H](O)[C@@H](O)[C@@H]1O | 19.4 µM |
|  | Nc1ccc(C(=O)NC(=O)N[C@@H]2O[C@H](CO)[C@@H](O)[C@H](O)[C@H]2O)cc1 | 6 µM |
| > 625 µM | OC[C@H]1O[C@@H](c2nc(-c3ccc4c(c3)OCO4)no2)[C@H](O)[C@@H](O)[C@@H]1O |  |
|  | O=C(NC(=O)c1ccc([N+](=O)[O-])cc1)N[C@@H]1O[C@H](CO)[C@@H](O)[C@H](O)[C@H]1O | 3.3 µM |
| 4500 µM | Cc1ccc(C(=O)N[C@@H]2O[C@H](CO)[C@@H](O)[C@H](O)[C@H]2O)cc1 |  |
|  | OC[C@H]1O[C@@H](c2nc(-c3ccccc3)no2)[C@H](O)[C@@H](O)[C@@H]1O | 64 µM |
|  | OC[C@H]1O[C@@H](c2nc(-c3cccc4ccccc34)no2)[C@H](O)[C@@H](O)[C@@H]1O | 19 µM |
|  | O=C(NC(=O)c1ccc(O)cc1)N[C@@H]1O[C@H](CO)[C@@H](O)[C@H](O)[C@H]1O | 6.3 µM |
| 350 µM | Cc1ccc(-c2nc([C@@H]3O[C@H](CO)[C@@H](O)[C@H](O)[C@H]3O)no2)cc1 |  |
|  | OC[C@H]1O[C@@H](c2nc(-c3ccc4ccccc4c3)no2)[C@H](O)[C@@H](O)[C@@H]1O | 2.4 µM |
|  | Cc1nnc(C2O[C@H](CO)[C@@H](O)[C@H](O)[C@H]2O)o1 (single isomer, unassigned) | 145 µM |

Source: ChEMBL document CHEMBL1152938, “Synthesis and structure-activity relationships of C-glycosylated oxadiazoles as inhibitors of glycogen phosphorylase” (Bioorg Med Chem, 2009)
